Source: ChEMBL document CHEMBL1614632, “Trend analysis of a database of intravenous pharmacokinetic parameters in humans for 670 drug compounds” (Drug Metab Dispos, 2008)

Key:
clinical [1] = details: human, in vivo, iv
clinical [2] = details: human, in vivo, iv, Vdss
clinical [3] = details: human, in vivo, iv, t1/2
clinical [4] = details: human, in vivo, iv, CL

Row | Compound | MRT (clinical [1]) [h] | Vd (clinical [2]) [L/kg] | half-life (clinical [3]) [h] | clearance (clinical [4]) [mL/min/kg]
1 | C[C@]12CC[C@@H]3c4ccc(OC(=O)N(CCCl)CCCl)cc4CC[C@H]3[C@@H]1CC[C@@H]2OP(=O)(O)O [ESTRAMUSTINE PHOSPHATE] | 2.1 | 0.12 | 2.4 | 0.94
2 | O=C1CN=C(c2ccccn2)c2cc(Br)ccc2N1 [BROMAZEPAM] | 28 | 0.85 | 21 | 0.51
3 | c1ccc(C2(c3ccccc3)CC2C2=NCCN2)cc1 (configuration not stated) [CIFENLINE] | 7.8 | 4.1 | 7.3 | 8.6
4 | CN1CCOC(c2ccccc2)c2ccccc2C1 (configuration not stated) [NEFOPAM] | 8.1 | 5.6 | 5 | 12
5 | OC(CNCC(O)C1CCc2cc(F)ccc2O1)C1CCc2cc(F)ccc2O1 (configuration not stated) [NEBIVOLOL] | 13 | 11 | 10 | 14
6 | Nc1ncnc2c1ncn2CCOCP(=O)(O)O [ADEFOVIR] | 1.9 | 0.42 | 1.6 | 3.7
7 | CCC(CC)O[C@@H]1C=C(C(=O)O)C[C@H](N)[C@H]1NC(C)=O [OSELTAMIVIR CARBOXYLATE] | 1.3 | 0.37 | 1.8 | 4.8
8 | COc1cc2c(N)nc(N3CCN(C(=O)OCC(C)(C)O)CC3)nc2c(OC)c1OC [TRIMAZOSIN] | 3.1 | 0.18 | 3.1 | 0.96
9 | CS(=O)(=O)OCCCCOS(C)(=O)=O [BUSULFAN] | 3.8 | 0.55 | 3.4 | 2.4
10 | CN(C)Cc1nnc2n1-c1ccc(Cl)cc1C(c1ccccc1)=NC2 [ADINAZOLAM] | 2.6 | 0.98 | 2.1 | 6.2
11 | CCNCC(O)c1cccc(O)c1 (configuration not stated) [ETILEFRINE] | 2.5 | 2.1 | 2.2 | 14
12 | CCOc1cc(CC(=O)N[C@@H](CC(C)C)c2ccccc2N2CCCCC2)ccc1C(=O)O [REPAGLINIDE] | 0.75 | 0.35 | 0.87 | 7.8
13 | Cn1c(=O)c2c(ncn2C)n(C)c1=O [CAFFEINE] | 7.5 | 0.63 | 4.9 | 1.4
14 | CC(C)(C)NC(=O)[C@H]1CC[C@H]2[C@@H]3CC=C4C=C(C(=O)O)CC[C@]4(C)[C@H]3CC[C@]12C [EPRISTERIDE] | 27 | 0.54 | 27 | 0.33
15 | COCCCOc1ccnc(C[S+]([O-])c2nc3ccccc3[nH]2)c1C (configuration not stated) [RABEPRAZOLE] | 0.92 | 0.22 | 1 | 4
16 | COc1cc2nc(N(C)CCCNC(=O)C3CCCO3)nc(N)c2cc1OC (configuration not stated) [ALFUZOSIN] | 4.2 | 1.5 | 4.8 | 5.9
17 | CCOc1ccccc1OC(c1ccccc1)C1CNCCO1 (configuration not stated) [REBOXETINE] | 13 | 0.65 | 10 | 0.82
18 | Cc1ccc(-c2nc3ccc(C)cn3c2CC(=O)N(C)C)cc1 [ZOLPIDEM] | 2.1 | 0.54 | 1.7 | 4.3
19 | COc1nc(N)nc2c1ncn2[C@@H]1O[C@H](CO)[C@@H](O)[C@@H]1O [NELARABINE] | 1 | 4.9 | 0.5 | 81

Row | Compound | MRT (clinical [1]) [h] | Vd (clinical [2]) [L/kg] | half-life (clinical [3]) [h] | clearance (clinical [4]) [mL/min/kg]
20 | CCOc1ccccc1OCCN[C@H](C)Cc1ccc(OC)c(S(N)(=O)=O)c1 [TAMSULOSIN] | 5.6 | 0.21 | 6.8 | 0.62
21 | COc1ccc2c3c1O[C@H]1C[C@@H](O)C=C[C@@]31CCN(C)C2 [GALANTAMINE] | 6.8 | 2.3 | 5.3 | 5.6
22 | Cc1cc(O)c2c(=O)c3c(O)cc(O)c4c5c(O)cc(O)c6c(=O)c7c(O)cc(C)c8c1c2c(c34)c(c78)c65 [HYPERICIN] | 32 | 0.25 | 42 | 0.13
23 | CC1=C(CO)C2=C(C)C3(CC3)[C@@](C)(O)C(=O)C2=C1 [IROFULVEN] | 0.4 | 3.1 | 0.3 | 140
24 | Cc1nccn1CC1CCc2c(c3ccccc3n2C)C1=O (configuration not stated) [ONDANSETRON] | 5.2 | 1.8 | 3.4 | 5.8
25 | C/C(=C\c1csc(C)n1)[C@@H]1C[C@@H]2O[C@]2(C)CCC[C@H](C)[C@H](O)[C@@H](C)C(=O)C(C)(C)[C@@H](O)CC(=O)N1 [IXABEPILONE] | 18 | 11 | 17 | 10
26 | N[C@@H](C(=O)N[C@@H]1C(=O)N2C(C(=O)O)=C(CSc3c[nH]nn3)CS[C@H]12)c1ccc(O)cc1 [CEFATRIZINE] | 1.1 | 0.22 | 1.2 | 3.3
27 | CN(C)C(=O)Oc1cc(OC(=O)N(C)C)cc(C(O)CNC(C)(C)C)c1 (configuration not stated) [BAMBUTEROL] | 1.4 | 1.6 | 2.6 | 18
28 | NS(=O)(=O)c1cc(C2(O)NC(=O)c3ccccc32)ccc1Cl (configuration not stated) [CHLORTHALIDONE] | 43 | 3.9 | 36 | 1.5
29 | CN1C2CCCC1CC(NC(=O)c1nn(C)c3ccccc13)C2 (configuration not stated) [GRANISETRON] | 6.7 | 3.7 | 5.2 | 9.1
30 | c1ccc(C2(N3CCCCC3)CCCCC2)cc1 [PHENCYCLIDINE] | 23 | 6.9 | 16 | 5.1
31 | CN1C(=O)CC[C@H]1c1cccnc1 [COTININE] | 21 | 1.1 | 17 | 0.89
32 | O=C1CN=C(c2ccccc2)c2cc([N+](=O)[O-])ccc2N1 [NITRAZEPAM] | 33 | 1.7 | 26 | 0.86
33 | Cn1cc(NC(=O)Nc2cc(C(=O)Nc3cc(C(=O)Nc4ccc5cc(S(=O)(=O)O)cc(S(=O)(=O)O)c5c4)n(C)c3)n(C)c2)cc1C(=O)Nc1cc(C(=O)Nc2ccc3cc(S(=O)(=O)O)cc(S(=O)(=O)O)c3c2)n(C)c1 | 960 | 0.27 | 730 | 0.0047
34 | CC1COc2c(N3CCN(C)CC3)c(F)cc3c(=O)c(C(=O)O)cn1c23 (configuration not stated) [OFLOXACIN] | 11 | 1.6 | 8.9 | 2.5
35 | C=CCN1CCCC1CNC(=O)c1cc2[nH]nnc2cc1OC (configuration not stated) [ALIZAPRIDE] | 4 | 1.6 | 2.8 | 6.6
36 | COc1cc(OC)c(C(=O)CCCN2CCCC2)c(OC)c1 [BUFLOMEDIL] | 3.9 | 1.3 | 3.3 | 5.6
37 | Clc1ccc2nsnc2c1NC1=NCCN1 [TIZANIDINE] | 3.6 | 2.4 | 2.4 | 11
38 | Nc1nc(=O)[nH]cc1F [FLUCYTOSINE] | 5.7 | 0.68 | 4.2 | 2
